How the values were obtained:
[1] = system: H1975 (KRAS wild type human lung adenocarcinoma cell line); test: KRAS 3D-Cell Proliferation Assay, H1975 (Example 503); format: cell-based; conditions: Homo sapiens, NCI-H1975, 168 h, H1975 3D culture, 7 days, CellTiter-Glo 3D; read-out: Prolif H1975 3D ATP IC50
Procedure: (§1) Example 503: KRAS 3D-Cell Proliferation Assays. Cellular potencies of compounds are assessed by evaluating inhibition of proliferation in 3D cultures of homozygous mutant KRAS G12D human pancreatic cell lines (AsPC-1 and HPAC) as compared to a KRAS wild type human lung adenocarcinoma cell line (PC-9 and/or H1975). Cells are seeded into 384-well black round-bottom, ultra-low attachment assay plates in 50 uL cell growth medium (RPMI-1640 with 10% fetal bovine serum and 2 mM L-glutamine). After overnight incubation at 37° C. and 5% CO2, compounds solubilized in DMSO are added as dilution series to the wells in a total volume of 150 nL (0.3% DMSO final). The cells are incubated for 7 days at 37° C. and 5% CO2. Cell proliferation is quantitated by addition of 40 uL/well of CellTiter-GloÒ 3D (Promega), and the well contents are mixed 20× at high speed using liquid handling automation workstation (Bravo with 384-well head) and centrifuged at 1500 rpm for 2 minutes to eliminate bubbles. This reagent in combination with mechanical disruption releases the cellular ATP to promote activity in a luciferase-based enzyme/substrate chemiluminescent detection system. After a 30-minute incubation under ambient conditions with shaking and an additional 10 minutes without shaking, the luminescence is read on a plate reader (e.g., EnVision [PerkinElmer]). The results are normalized to percent inhibition based on the following control samples: DMSO (0% inhibition) and 1 μM staurosporine (100% inhibition). The normalized luminescence results are plotted against compound concentration, and the data are fit to a 4-parameter Hill equation to determine the IC50 values.

[2] = system: HPAC (homozygous mutant KRAS G12D human pancreatic cell line); test: KRAS 3D-Cell Proliferation Assay, HPAC (Example 503); format: cell-based; conditions: Homo sapiens, HPAC, 168 h, HPAC 3D culture, 7 days, CellTiter-Glo 3D; read-out: Prolif HPAC 3D ATP IC50
Procedure: as §1

Compound | IC50 [1] | IC50 [2]
Cc1c(F)c(N)cc(-c2nc3c4c(nc(OC[C@@]56CCCN5C[C@H](F)C6)nc4c2F)N2C[C@H]4CC[C@H](NC4)[C@H]2CO3)c1C(F)(F)F [Compound 236, 2-Fluoro-5-((5aS,6S,9S)-1-fluoro-12-(((2R,7aS)-2-fluorotetrahydro-1H-pyrrolizin-7a(5H)-yl)methoxy)-5a,6,7,8,9,10-hexahydro-5H-4-oxa-3,10a,11,13,15-pentaaza-6,9-ethanonaphtho[1,8-ab]heptalene-2-yl)-3-methyl-4-(trifluoromethyl)aniline] | 14.5 µM | 2 µM
C[C@@H]1Oc2nc(-c3cccc4ccc(N)nc34)c(F)c3nc(OC[C@@]45CCCN4C[C@H](F)C5)nc(c23)N2C[C@H]3CC[C@H](N3)[C@@H]12 [Compound 114, 8-((5S,5aS,6S,9R)-1-Fluoro-12-(((2R,7aS)-2-fluorotetrahydro-1H-pyrrolizin-7a(5H)-yl)methoxy)-5-methyl-5a,6,7,8,9,10-hexahydro-5H-4-oxa-3,10a,11,13,14-pentaaza-6,9-methanonaphtho[1,8-ab]heptalen-2-yl)quinolin-2-amine] | 20 µM | 2 µM
Cc1c(F)c(N)cc(-c2nc3c4c(nc(OCC5CCC6CC(C(=O)N(C)C)CCN56)nc4c2F)N2CC4CCC(N4)C2C(C)O3)c1C(F)(F)F (single isomer, unassigned) [133 (isomer 4)] | 2.08 µM | 0.0141 µM
Cc1c(F)c(N)cc(-c2nc3c4c(nc(OC[C@@H]5CO[C@H]6CC[N@]5C6)nc4c2F)N2C[C@H]4CC[C@H](N4)[C@H]2[C@H](C)O3)c1C(F)(F)F [Compound 135, 5-((5S,5aS,6S,9R)-12-(((1R,2S,5S)-4-Oxa-1-azabicyclo[3.2.1]octan-2-yl)methoxy)-1-fluoro-5-methyl-5a,6,7,8,9,10-hexahydro-5H-4-oxa-3,10a,11,13,14-pentaaza-6,9-methanonaphtho[1,8-ab]heptalen-2-yl)-2-fluoro-3-methyl-4-(trifluoromethyl)aniline] | 20 µM | 0.0956 µM
Cc1nc(N)cc(-c2nc3c4c(nc(OCC5(CN6CC7CCC6CO7)CC5)nc4c2F)N2C[C@H]4CC[C@H](N4)[C@H]2[C@H](C)O3)c1C(F)(F)F [Compound 211, 4-((5S,5aS,6S,9R)-12-((1-((2-Oxa-5-azabicyclo[2.2.2]octan-5-yl)methyl)cyclopropyl)methoxy)-1-fluoro-5-methyl-5°,6,7,8,9,10-hexahydro-5H-4-oxa-3,10°,11,13,14-pentaaza-6,9-methanonaphtho[1,8-ab]heptalen-2-yl)-6-methyl-5-(trifluoromethyl)pyridin-2-amine] | 1.15 µM | 0.00145 µM
Cc1nc(N)cc(-c2nc3c4c(nc(OCC5(CN6C[C@@H]7C[C@H]6CO7)CC5)nc4c2F)N2C[C@H]4CC[C@H](N4)[C@H]2[C@H](C)O3)c1C(F)(F)F [Compound 208, 4-((5S,5aS,6S,9R)-12-((1-(((1S,4S)-2-Oxa-5-azabicyclo[2.2.1]heptan-5-yl)methyl)cyclopropyl)methoxy)-1-fluoro-5-methyl-5a,6,7,8,9,10-hexahydro-5H-4-oxa-3,10a,11,13,14-pentaaza-6,9-methanonaphtho[1,8-ab]heptalene-2-yl)-6-methyl-5-(trifluoromethyl)pyridin-2-amine] | 3.63 µM | 0.00489 µM
C[C@@H]1Oc2nc(-c3cc(N)c(F)c(F)c3CC(F)F)c(F)c3cc(OC[C@@H]4CC[C@H]5COCCN54)nc(c23)N2C[C@H]3CC[C@H](N3)[C@@H]12 [Compound 158, 4-(2,2-Difluoroethyl)-2,3-difluoro-5-((5S,5aS,6S,9R)-1-fluoro-13-(((6S,8aS)-hexahydro-1H-pyrrolo[2,1-c][1,4]oxazin-6-yl)methoxy)-5-methyl-5a,6,7,8,9,10-hexahydro-5H-6,9-epiminoazepino[2′,1′:3,4][1,4]oxazepino[5,6,7-ij][2,7]naphthyridin-2-yl)aniline] | 13.8 µM | 0.00994 µM
Cc1cc(N)cc(-c2nc3c4c(nc(OC[C@@]56CCCN5C[C@H](F)C6)nc4c2F)N2C[C@H]4CC[C@H](N4)[C@H]2[C@H](C)O3)c1Cl [Compound 74, 4-Chloro-3-((5S,5aS,6S,9R)-1-fluoro-12-(((2R,7aS)-2-fluorotetrahydro-1H-pyrrolizin-7a(5H)-yl)methoxy)-5-methyl-5a,6,7,8,9,10-hexahydro-5H-4-oxa-3,10a,11,13,14-pentaaza-6,9-methanonaphtho[1,8-ab]heptalen-2-yl)-5-methylaniline] | 2.04 µM | 0.0057 µM
Cc1c(F)c(N)c(F)c(-c2nc3c4c(nc(OC[C@@]56CCCN5C/C(=C\F)C6)nc4c2F)N2C[C@H]4CC[C@H](N4)[C@H]2[C@H](C)O3)c1C(F)(F)F [Compound 229, 2,6-Difluoro-3-((5S,5aS,6S,9R)-1-fluoro-12-(((S,Z)-2-(fluoromethylene)tetrahydro-1H-pyrrolizin-7a(5H)-yl)methoxy)-5-methyl-5a,6,7,8,9,10-hexahydro-5H-4-oxa-3,10a,11,13,14-pentaaza-6,9-methanonaphtho[1,8-ab]heptalene-2-yl)-5-methyl-4-(trifluoromethyl)aniline] | 0.639 µM | 0.00182 µM
Cc1c(F)c(N)cc(-c2nc3c4c(nc(OC[C@@]56CCCN5C[C@H](F)C6)nc4c2F)N2C[C@H]4CC[C@H](N4)[C@H]2[C@H](C)O3)c1S(C)(=O)=O [Compound 180, 2-Fluoro-5-((5S,5aS,6S,9R)-1-fluoro-12-(((2R,7aS)-2-fluorotetrahydro-1H-pyrrolizin-7a(5H)-yl)methoxy)-5-methyl-5a,6,7,8,9,10-hexahydro-5H-4-oxa-3,10a,11,13,14-pentaaza-6,9-methanonaphtho[1,8-ab]heptalene-2-yl)-3-methyl-4-(methylsulfonyl)aniline] | 20 µM | 2 µM
Cc1nc(N)cc(-c2nc3c4c(nc(OCC5(CN6CC7CC(F)(F)C7C6)CC5)nc4c2F)N2C[C@H]4CC[C@H](N4)[C@H]2[C@H](C)O3)c1C(F)(F)F (mixture of isomers) [Compound 264, 4-((5S,5aS,6S,9R)-12-((1-((6,6-difluoro-3-azabicyclo[3.2.0]heptan-3-yl)methyl)cyclopropyl)methoxy)-1-fluoro-5-methyl-5a,6,7,8,9,10-hexahydro-5H-4-oxa-3,10a,11,13,14-pentaaza-6,9-methanonaphtho[1,8-ab]heptalene-2-yl)-6-methyl-5-(trifluoromethyl)pyridin-2-amine] | 11 µM | 0.00556 µM
Cc1c(F)c(N)cc(-c2nc3c4c(nc(OC[C@@H]5CC[C@@H]6C[C@@H](C(=O)N(C)C)CCN65)nc4c2F)N2C[C@H]4CC[C@H](N4)[C@H]2[C@H](C)O3)c1C(F)(F)F (single isomer, unassigned) [133 (isomer 1)] | 2.63 µM | 0.0267 µM
Cc1c(F)c(N)cc(-c2nc3c4c(nc(OC[C@@]56CCCN5CCN(C)C6=O)nc4c2F)N2C[C@H]4CC[C@H](N4)[C@H]2[C@H](C)O3)c1C(F)(F)F (single isomer, unassigned) [137 (isomer 1)] | 20 µM | 0.127 µM
Cc1c(F)c(N)cc(-c2nc3c4c(nc(OCC56CCCN5CC(F)C6)nc4c2F)N2CCNCC2C(C)O3)c1C(F)(F)F (single isomer, unassigned) [235 (isomer 1)] | 4.34 µM | 2.42 µM
COC1(CF)CN(CC2(COc3nc4c5c(nc(-c6cc(N)nc(C)c6C(F)(F)F)c(F)c5n3)O[C@@H](C)[C@@H]3[C@@H]5CC[C@H](CN43)N5)CC2)C1 [Compound 272] | 5.48 µM | 0.00458 µM

Source: patent US12338256B2, “Aza-tetracyclic oxazepine compounds and uses thereof” (Genentech, Inc., priority 2022, dated 2025)
